For the test, the system named is PGY-sRNA-26. As to the kind of experiment: In vivo delivery study of lipid-nucleic acid mixture (oral gavage, RT-qPCR of PGY-sRNA-26 in tissues). Conditions: for delivery efficacy over each tissue and blood tested (broad-spectrum delivery): all tissues and blood tested; for oral delivery of single-stranded sRNA nucleic acids into mouse intestinal tissue: intestine. Also on record: species or system mouse. The gist of the method: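 C57BL/6 male mice (~6 weeks, 20-24 g), fasted 12 h, were gavaged with 10 nmol 3′-methylated PGY-sRNA-26 mixed with 100 μg lipid (heated 90° C. 15 min), versus saline or free sRNA (n=4 each). After 12 h, blood and tissues were Trizol-extracted; sRNA quantified by stem-loop RT-qPCR relative to U6.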

[1] abbreviates: C57BL/6 mice, gavage, 100 μg lipid: 10 nmol PGY-sRNA-26, 12 hours.
The mark [2] stands for this setting: C57BL/6 mice, gavage, 100 μg lipid: 10 nmol PGY-sRNA-26, 12 hours, brain.

On to `C[C@]12CCC(=O)C=C1CC[C@@H]1[C@@H]2[C@@H](O)C[C@]2(C)C(=O)CC[C@@H]12` [Lipid 555], for which, under setting [1], the “delivery efficacy over each tissue and blood tested (broad-spectrum delivery)” value is on record as “exhibited the best delivery efficacy”; the “oral delivery of single-stranded sRNA nucleic acids into mouse blood” value is “can effectively orally deliver”; the “oral delivery of single-stranded sRNA nucleic acids into mouse femur” value is “can effectively orally deliver”; the “oral delivery of single-stranded sRNA nucleic acids into mouse heart tissue” value is given as “can effectively orally deliver”. In addition, under setting [1], the “oral delivery of single-stranded sRNA nucleic acids into mouse intestinal tissue” value was “can effectively orally deliver”, the “oral delivery of single-stranded sRNA nucleic acids into mouse kidney tissue” value is recorded as “can effectively orally deliver”, the “oral delivery of single-stranded sRNA nucleic acids into mouse liver tissue” value is reported as “can effectively orally deliver” and the “oral delivery of single-stranded sRNA nucleic acids into mouse lung tissue” value is recorded as “can effectively orally deliver”. Moreover, under setting [1], the “oral delivery of single-stranded sRNA nucleic acids into mouse spleen tissue” value was “can effectively orally deliver” and the “oral delivery of single-stranded sRNA nucleic acids into mouse stomach tissue” value is reported as “can effectively orally deliver”. Also, the “oral delivery of single-stranded sRNA nucleic acids into mouse brain tissue” value under setting [2] is “can effectively orally deliver”.

For the molecule `CCCCC(=O)O[C@H]1CC[C@H]2[C@@H]3CCc4cc(O)ccc4[C@H]3CC[C@]12C` [Lipid 556], under setting [1], the “delivery efficacy over each tissue and blood tested (broad-spectrum delivery)” value is listed as “exhibited the best delivery efficacy”; the “oral delivery of single-stranded sRNA nucleic acids into mouse blood” value is “can effectively orally deliver”; the “oral delivery of single-stranded sRNA nucleic acids into mouse femur” value is recorded as “can effectively orally deliver”; the “oral delivery of single-stranded sRNA nucleic acids into mouse heart tissue” value is “can effectively orally deliver”. Further, under setting [1], the “oral delivery of single-stranded sRNA nucleic acids into mouse intestinal tissue” value is listed as “can effectively orally deliver”, the “oral delivery of single-stranded sRNA nucleic acids into mouse kidney tissue” value is listed as “can effectively orally deliver”, the “oral delivery of single-stranded sRNA nucleic acids into mouse liver tissue” value is listed as “can effectively orally deliver” and the “oral delivery of single-stranded sRNA nucleic acids into mouse lung tissue” value was “can effectively orally deliver”. Further, under setting [1], the “oral delivery of single-stranded sRNA nucleic acids into mouse spleen tissue” value is “can effectively orally deliver” and the “oral delivery of single-stranded sRNA nucleic acids into mouse stomach tissue” value is on record as “can effectively orally deliver”. In addition, under setting [2], the “oral delivery of single-stranded sRNA nucleic acids into mouse brain tissue” value is “can effectively orally deliver”.

Turning to `CC(=O)[C@@]1(O)CC[C@H]2[C@@H]3C[C@H](C)C4=CC(=O)CC[C@]4(C)[C@H]3CC[C@@]21C` [Lipid 557], under setting [1], the “delivery efficacy over each tissue and blood tested (broad-spectrum delivery)” value is on record as “exhibited the best delivery efficacy”; the “oral delivery of single-stranded sRNA nucleic acids into mouse blood” value was “can effectively orally deliver”; the “oral delivery of single-stranded sRNA nucleic acids into mouse femur” value is reported as “can effectively orally deliver”; the “oral delivery of single-stranded sRNA nucleic acids into mouse heart tissue” value is “can effectively orally deliver”. Under setting [1], the “oral delivery of single-stranded sRNA nucleic acids into mouse intestinal tissue” value is “can effectively orally deliver”, the “oral delivery of single-stranded sRNA nucleic acids into mouse kidney tissue” value is on record as “can effectively orally deliver”, the “oral delivery of single-stranded sRNA nucleic acids into mouse liver tissue” value is “can effectively orally deliver” and the “oral delivery of single-stranded sRNA nucleic acids into mouse lung tissue” value was “can effectively orally deliver”. Further, under setting [1], the “oral delivery of single-stranded sRNA nucleic acids into mouse spleen tissue” value is “can effectively orally deliver” and the “oral delivery of single-stranded sRNA nucleic acids into mouse stomach tissue” value was “can effectively orally deliver”. The “oral delivery of single-stranded sRNA nucleic acids into mouse brain tissue” value (mouse, in vivo, po) was “can effectively orally deliver”.

Take `C[C@@H]1CC[C@@]2(OC1)O[C@H]1C[C@H]3[C@@H]4CC[C@H]5C[C@@H](O)CC[C@]5(C)[C@H]4CC(=O)[C@]3(C)[C@H]1[C@@H]2C` [Lipid 558]: under setting [1], the “delivery efficacy over each tissue and blood tested (broad-spectrum delivery)” value was “exhibited the best delivery efficacy”; the “oral delivery of single-stranded sRNA nucleic acids into mouse blood” value is “can effectively orally deliver”; the “oral delivery of single-stranded sRNA nucleic acids into mouse femur” value is “can effectively orally deliver”; the “oral delivery of single-stranded sRNA nucleic acids into mouse heart tissue” value was “can effectively orally deliver”. Besides, under setting [1], the “oral delivery of single-stranded sRNA nucleic acids into mouse intestinal tissue” value is recorded as “can effectively orally deliver”, the “oral delivery of single-stranded sRNA nucleic acids into mouse kidney tissue” value was “can effectively orally deliver”, the “oral delivery of single-stranded sRNA nucleic acids into mouse liver tissue” value is “can effectively orally deliver” and the “oral delivery of single-stranded sRNA nucleic acids into mouse lung tissue” value is “can effectively orally deliver”. For the same molecule, under setting [1], the “oral delivery of single-stranded sRNA nucleic acids into mouse spleen tissue” value is recorded as “can effectively orally deliver” and the “oral delivery of single-stranded sRNA nucleic acids into mouse stomach tissue” value is “can effectively orally deliver”. For the same molecule, the “oral delivery of single-stranded sRNA nucleic acids into mouse brain tissue” value under setting [2] was “can effectively orally deliver”.

`C[C@]12CC[C@H](O)C[C@H]1CC[C@@H]1[C@@H]2CC[C@]2(C)[C@@H](C3=CC(=O)OC3)CC[C@]12O` [Lipid 559]: under setting [1], the “delivery efficacy over each tissue and blood tested (broad-spectrum delivery)” value was “exhibited the best delivery efficacy”; the “oral delivery of single-stranded sRNA nucleic acids into mouse blood” value is listed as “can effectively orally deliver”; the “oral delivery of single-stranded sRNA nucleic acids into mouse femur” value is on record as “can effectively orally deliver”; the “oral delivery of single-stranded sRNA nucleic acids into mouse heart tissue” value is “can effectively orally deliver”. In addition, under setting [1], the “oral delivery of single-stranded sRNA nucleic acids into mouse intestinal tissue” value is reported as “can effectively orally deliver”, the “oral delivery of single-stranded sRNA nucleic acids into mouse kidney tissue” value is reported as “can effectively orally deliver”, the “oral delivery of single-stranded sRNA nucleic acids into mouse liver tissue” value was “can effectively orally deliver” and the “oral delivery of single-stranded sRNA nucleic acids into mouse lung tissue” value is reported as “can effectively orally deliver”. Further, under setting [1], the “oral delivery of single-stranded sRNA nucleic acids into mouse spleen tissue” value is “can effectively orally deliver” and the “oral delivery of single-stranded sRNA nucleic acids into mouse stomach tissue” value is “can effectively orally deliver”. Moreover, the “oral delivery of single-stranded sRNA nucleic acids into mouse brain tissue” value under setting [2] is given as “can effectively orally deliver”.

On to `C#C[C@]1(O)CC[C@H]2[C@@H]3CCC4=CC(=O)CC[C@@H]4[C@H]3CC[C@@]21CC` [Lipid 560], for which, under setting [1], the “delivery efficacy over each tissue and blood tested (broad-spectrum delivery)” value is “exhibited the best delivery efficacy”; the “oral delivery of single-stranded sRNA nucleic acids into mouse blood” value is “can effectively orally deliver”; the “oral delivery of single-stranded sRNA nucleic acids into mouse femur” value is “can effectively orally deliver”; the “oral delivery of single-stranded sRNA nucleic acids into mouse heart tissue” value is listed as “can effectively orally deliver”. Besides, under setting [1], the “oral delivery of single-stranded sRNA nucleic acids into mouse intestinal tissue” value is listed as “can effectively orally deliver”, the “oral delivery of single-stranded sRNA nucleic acids into mouse kidney tissue” value is listed as “can effectively orally deliver”, the “oral delivery of single-stranded sRNA nucleic acids into mouse liver tissue” value was “can effectively orally deliver” and the “oral delivery of single-stranded sRNA nucleic acids into mouse lung tissue” value was “can effectively orally deliver”. Under setting [1], the “oral delivery of single-stranded sRNA nucleic acids into mouse spleen tissue” value is “can effectively orally deliver” and the “oral delivery of single-stranded sRNA nucleic acids into mouse stomach tissue” value was “can effectively orally deliver”. Under setting [2], the “oral delivery of single-stranded sRNA nucleic acids into mouse brain tissue” value is listed as “can effectively orally deliver”.

Regarding `C[C@]12CC[C@H](O)CC1=CC[C@@H]1[C@@H]2CC[C@]2(C)C(=O)CC[C@@H]12` [Lipid 561], under setting [1], the “oral delivery of single-stranded sRNA nucleic acids into mouse blood” value is “can effectively orally deliver” and the “oral delivery of single-stranded sRNA nucleic acids into mouse femur” value was “can effectively orally deliver”.

Consider `C[C@]12CC[C@H]3[C@@H](CCC4=CC(=O)CC[C@@H]43)[C@@H]1CC[C@@H]2O` [Lipid 562], for which, under setting [1], the “oral delivery of single-stranded sRNA nucleic acids into mouse blood” value is listed as “can effectively orally deliver”, the “oral delivery of single-stranded sRNA nucleic acids into mouse femur” value is given as “can effectively orally deliver”, the “oral delivery of single-stranded sRNA nucleic acids into mouse heart tissue” value is recorded as “can effectively orally deliver” and the “oral delivery of single-stranded sRNA nucleic acids into mouse intestinal tissue” value is given as “can effectively orally deliver”. Besides, under setting [1], the “oral delivery of single-stranded sRNA nucleic acids into mouse liver tissue” value is “can effectively orally deliver”, the “oral delivery of single-stranded sRNA nucleic acids into mouse lung tissue” value is reported as “can effectively orally deliver”, the “oral delivery of single-stranded sRNA nucleic acids into mouse spleen tissue” value is given as “can effectively orally deliver” and the “oral delivery of single-stranded sRNA nucleic acids into mouse stomach tissue” value was “can effectively orally deliver”. The “oral delivery of single-stranded sRNA nucleic acids into mouse brain tissue” value under setting [2] is “can effectively orally deliver”.

`C[C@]12CC[C@@H](O)C[C@@H]1CC[C@@H]1[C@@H]2CC[C@]2(C)C(=O)CC[C@@H]12` [Lipid 563]: under setting [1], the “delivery efficacy over each tissue and blood tested (broad-spectrum delivery)” value is listed as “exhibited the best delivery efficacy”; the “oral delivery of single-stranded sRNA nucleic acids into mouse blood” value is listed as “can effectively orally deliver”; the “oral delivery of single-stranded sRNA nucleic acids into mouse femur” value is on record as “can effectively orally deliver”; the “oral delivery of single-stranded sRNA nucleic acids into mouse heart tissue” value is recorded as “can effectively orally deliver”. Also, under setting [1], the “oral delivery of single-stranded sRNA nucleic acids into mouse intestinal tissue” value is listed as “can effectively orally deliver”, the “oral delivery of single-stranded sRNA nucleic acids into mouse kidney tissue” value is “can effectively orally deliver”, the “oral delivery of single-stranded sRNA nucleic acids into mouse liver tissue” value is “can effectively orally deliver” and the “oral delivery of single-stranded sRNA nucleic acids into mouse lung tissue” value was “can effectively orally deliver”. Under setting [1], the “oral delivery of single-stranded sRNA nucleic acids into mouse spleen tissue” value is “can effectively orally deliver” and the “oral delivery of single-stranded sRNA nucleic acids into mouse stomach tissue” value was “can effectively orally deliver”. The “oral delivery of single-stranded sRNA nucleic acids into mouse brain tissue” value under setting [2] is “can effectively orally deliver”.

For the origin of these results see patent US20240293551A1, “USE OF ST-TYPE LIPID COMPOUNDS IN PREPARATION OF NUCLEIC ACID DELIVERY REAGENT AND RELATED PRODUCT” (INSTITUTE OF BASIC MEDICAL SCIENCES CHINESE ACADEMY OF …, priority 2021, published 2024).
